Results reported in article PMC12892976, “Alkylation-based optimization of antifungal FPPS inhibitors yields a potent, broad-spectrum lipophilic zoledronate derivative” (mBio, 2025).

Key:
[1] = system: Aspergillus terreus; experiment: checkerboard drug interaction (FICI, MICc); assay type: cell-based;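 note: simplified diagonal checkerboard screen pairing antifungals with FPPS inhibitors, FICI derived by the Loewe additivity model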
Procedure: (§1) Drug interactions between antifungals and FPPS inhibitors were investigated using a simplified checkerboard diagonal screening method ([45]). […] FICIs were determined according to the Loewe additivity model ([17]).

[2] = system: Aspergillus udagawae; experiment: checkerboard drug interaction (FICI, MICc); assay type: cell-based;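 note: simplified diagonal checkerboard screen pairing antifungals with FPPS inhibitors, FICI calculated using the Loewe additivity model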
Procedure: as §1

[3] = system: Aspergillus lentulus; experiment: checkerboard drug interaction (FICI, MICc); assay type: cell-based;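 note: simplified diagonal checkerboard screen pairing antifungals with FPPS inhibitors, with the interaction index calculated under the Loewe additivity model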
Procedure: as §1

[4] = system: Microsporum canis; experiment: checkerboard drug interaction (FICI, MICc); assay type: cell-based;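 note: simplified diagonal checkerboard screen pairing antifungals with FPPS inhibitors, FICI calculated under the Loewe additivity model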
Procedure: as §1

[5] = system: Nannizzia nana; experiment: checkerboard drug interaction (FICI, MICc); assay type: cell-based;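 note: simplified diagonal checkerboard screen pairing antifungals with FPPS inhibitors, FICI calculated under the Loewe additivity model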
Procedure: as §1

[6] = system: Trichophyton tonsurans; experiment: checkerboard drug interaction (FICI, MICc); assay type: cell-based;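 note: simplified diagonal checkerboard screen combining antifungals with FPPS inhibitors, with FICI calculated under the Loewe additivity model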
Procedure: as §1

[7] = system: Microsporum canis; experiment: MIC broth microdilution (CLSI); conditions: Microsporum canis R-232
Procedure: (§2) Antifungal susceptibility was determined by broth microdilution according to the CLSI guidelines described in M27-Ed4 ([16]).

[8] = system: Trichophyton soudanense; experiment: MIC broth microdilution (CLSI); conditions: Trichophyton soudanense R-167
Procedure: as §2

[9] = system: Aspergillus parafelis; experiment: checkerboard drug interaction (FICI, MICc);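 note: simplified diagonal checkerboard screen pairing antifungals with FPPS inhibitors, FICI calculated under the Loewe additivity model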
Procedure: as §1

[10] = system: Paraphyton cookei; experiment: checkerboard drug interaction (FICI, MICc);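 note: simplified diagonal checkerboard screen pairing an antifungal with an FPPS inhibitor, FICI computed under the Loewe additivity model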
Procedure: as §1

[11] = system: Nannizzia gypsea; experiment: checkerboard drug interaction (FICI, MICc);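 note: simplified diagonal checkerboard screen pairing antifungals with FPPS inhibitors, FICI derived using the Loewe additivity model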
Procedure: as §1

CCCCCCCCCCn1cc[n+](CC(O)(P(=O)(O)O)P(=O)(O)O)c1 [10-ZOL, Decyl-zoledronate]
FICI ([1]; 5FC:10-ZOL): 1.5 | FICI ([1]; CAS:10-ZOL): 3 | FICI ([1]; FLC:10-ZOL): 0.53 | FICI ([1]; ITR:10-ZOL): 1 | FICI ([1]; KET:10-ZOL): 1.5 | FICI ([1]; VOR:10-ZOL): 1.5 | bisphosphonate MICc ([1]; with 5FC): 0.25 | bisphosphonate MICc ([1]; with AMB): 0.5 | bisphosphonate MICc ([1]; with CAS): 1 | bisphosphonate MICc ([1]; with FLC): 0.25 | bisphosphonate MICc ([1]; with ITR): 0.25 | bisphosphonate MICc ([1]; with KET): 0.25 | bisphosphonate MICc ([1]; with VOR): 0.25 | FICI ([2]; 5FC:10-ZOL): 1 | FICI ([2]; CAS:10-ZOL): 1 | FICI ([2]; FLC:10-ZOL): 1.02 | FICI ([2]; ITR:10-ZOL): 0.5 | FICI ([2]; VOR:10-ZOL): 1.03 | bisphosphonate MICc ([2]; with 5FC): 0.5 | bisphosphonate MICc ([2]; with AMB): 0.5 | bisphosphonate MICc ([2]; with CAS): 0.5 | bisphosphonate MICc ([2]; with FLC): 1 | bisphosphonate MICc ([2]; with ITR): 0.25 | bisphosphonate MICc ([2]; with KET): 0.5 | bisphosphonate MICc ([2]; with VOR): 1 | FICI ([3]; 5FC:10-ZOL): ≥4 | FICI ([3]; CAS:10-ZOL): 2 | FICI ([3]; FLC:10-ZOL): 1.02 | bisphosphonate MICc ([3]; with 5FC): 1 | bisphosphonate MICc ([3]; with AMB): 2 | bisphosphonate MICc ([3]; with CAS): 2 | bisphosphonate MICc ([3]; with FLC): 2 | bisphosphonate MICc ([3]; with ITR): 1 | bisphosphonate MICc ([3]; with KET): 1 | bisphosphonate MICc ([3]; with VOR): 1 | FICI ([4]; 5FC:10-ZOL): 3 | FICI ([4]; CAS:10-ZOL): 2 | FICI ([4]; VOR:10-ZOL): 1.16 | bisphosphonate MICc ([4]; with 5FC): 1 | bisphosphonate MICc ([4]; with AMB): 0.25 | bisphosphonate MICc ([4]; with CAS): 1 | bisphosphonate MICc ([4]; with FLC): 0.25 | bisphosphonate MICc ([4]; with ITR): 0.5 | bisphosphonate MICc ([4]; with KET): 1 | bisphosphonate MICc ([4]; with VOR): 0.125 | FICI ([5]; 5FC:10-ZOL): 2 | FICI ([5]; AMB:10-ZOL): 2.25 | FICI ([5]; CAS:10-ZOL): 2.17 | FICI ([5]; FLC:10-ZOL): 1.5 | FICI ([5]; ITR:10-ZOL): 2 | FICI ([5]; VOR:10-ZOL): 1.17 | bisphosphonate MICc ([5]; with 5FC): 1 | bisphosphonate MICc ([5]; with AMB): 0.25 | bisphosphonate MICc ([5]; with CAS): 0.25 | bisphosphonate MICc ([5]; with FLC): 0.5 | bisphosphonate MICc ([5]; with ITR): 1 | bisphosphonate MICc ([5]; with KET): 0.25 | bisphosphonate MICc ([5]; with VOR): 0.125 | FICI ([6]; 5FC:10-ZOL): 2 | FICI ([6]; AMB:10-ZOL): 2.92 | FICI ([6]; CAS:10-ZOL): ≥4 | FICI ([6]; FLC:10-ZOL): 0.52 | bisphosphonate MICc ([6]; with 5FC): 1 | bisphosphonate MICc ([6]; with AMB): 1 | bisphosphonate MICc ([6]; with CAS): 1 | bisphosphonate MICc ([6]; with FLC): 0.5 | bisphosphonate MICc ([6]; with ITR): 1 | bisphosphonate MICc ([6]; with KET): 0.25 | bisphosphonate MICc ([6]; with VOR): 0.5 | MIC / MEC [7]: 1 µg/mL | MIC / MEC [8]: 2 µg/mL | FICI ([9]; 5FC:10-ZOL): ≥4 | FICI ([9]; CAS:10-ZOL): ≥4 | FICI ([9]; FLC:10-ZOL): 0.52 | bisphosphonate MICc ([9]; with 5FC): 2 | bisphosphonate MICc ([9]; with AMB): 2 | bisphosphonate MICc ([9]; with CAS): 1 | bisphosphonate MICc ([9]; with FLC): 2 | bisphosphonate MICc ([9]; with ITR): 4 | bisphosphonate MICc ([9]; with KET): 1 | bisphosphonate MICc ([9]; with VOR): 2 | FICI ([10]; 5FC:10-ZOL): ≥4 | FICI ([10]; AMB:10-ZOL): 1.5 | FICI ([10]; CAS:10-ZOL): 1.5 | FICI ([10]; FLC:10-ZOL): 0.53 | FICI ([10]; ITR:10-ZOL): 0.53 | FICI ([10]; VOR:10-ZOL): 0.9 | bisphosphonate MICc ([10]; with 5FC): 0.25 | bisphosphonate MICc ([10]; with AMB): 0.25 | bisphosphonate MICc ([10]; with CAS): 0.25 | bisphosphonate MICc ([10]; with FLC): 0.25 | bisphosphonate MICc ([10]; with ITR): 0.25 | bisphosphonate MICc ([10]; with KET): 0.25 | bisphosphonate MICc ([10]; with VOR): 0.125 | FICI ([11]; AMB:10-ZOL): 2 | FICI ([11]; CAS:10-ZOL): 2.25 | FICI ([11]; ITR:10-ZOL): 1.5 | FICI ([11]; VOR:10-ZOL): 1.5 | bisphosphonate MICc ([11]; with 5FC): 0.5 | bisphosphonate MICc ([11]; with AMB): 0.5 | bisphosphonate MICc ([11]; with CAS): 1 | bisphosphonate MICc ([11]; with FLC): 0.25 | bisphosphonate MICc ([11]; with ITR): 0.25 | bisphosphonate MICc ([11]; with KET): 0.25 | bisphosphonate MICc ([11]; with VOR): 0.25
